# Laboratory results published in patent US11439707B2, “Hypocrellin derivative substituted both in a peri-position and in 2-position by amino, preparation method, and application thereof” (priority 2017, dated 2022).
# Key:
# [1] = absorption spectrum (maximum absorption wavelength, molar extinction coefficient); format: physicochemical
# [2] = singlet oxygen efficiency test, reference rose bengal; format: physicochemical
Compound,maximum absorption wavelength [1] [nm],molar extinction coefficient [1],singlet oxygen yield [2] [%]
COc1c2c3c4c(c(NCc5cccc[n+]5CCCC(=O)O)c(=O)c5c(NCc6cccc[n+]6CCCC(=O)O)cc(OC)c(c6c(OC)cc(O)c(c1=O)c63)c54)C=C(C)C2C(C)=O (stereo not drawn) [HB-38c-N—COOH],622,"21,500 M^−1cm^−1",21
COCCOC(=O)CCCCCNc1c(NCCCCCC(=O)OCCOC)c2c(=O)cc(OC)c3c4c(OC)cc(=O)c5c(O)c(OC)c6c(c(c1C=C(C)C6)c23)c54 [HC-9a-PEG1],621,"30,000 M^−1cm^−1",32
COc1c(NCc2cccc[n+]2C)c2c(=O)cc(OC)c3c4c(OC)cc(=O)c5c(O)c(NCc6cccc[n+]6C)c6c(c(c1C(C(C)=O)C(C)=C6)c23)c54 (stereo not drawn) [HB-38b-N^+],620,"21,000 M^−1cm^−1",20
COc1c2c3c4c(c(NC5CCC(C(=O)O)C5)c(=O)c5c(O)cc(OC)c(c6c(OC)cc(NC7CCC(C(=O)O)C7)c(c1=O)c63)c54)C=C(C)C2C(C)=O (stereo not drawn) [HB-19d],625,"24,000 M^−1cm^−1",20
COc1c(O)c2c(=O)cc(OC)c3c4c(OC)cc(=O)c5c(NC(CCC(=O)O)C(=O)O)c(NC(CCC(=O)O)C(=O)O)c6c(c(c1C(C(C)=O)C(C)=C6)c23)c54 (stereo not drawn) [HB-28a],621,"20,500 M^−1cm^−1",18
CCNc1c(NC2CCCC2)c2c(=O)cc(OC)c3c4c(OC)cc(=O)c5c(O)c(OC)c6c(c(c1C=C(C)C6C(C)=O)c23)c54 (stereo not drawn) [HB-44a],628,"21,500 M^−1cm^−1",20
COc1c2c3c4c(c(NCCCC(=O)NCCCCCCS(=O)(=O)O)c(=O)c5c(NCCCC(=O)NCCCCCCS(=O)(=O)O)cc(OC)c(c6c(OC)cc(O)c(c1=O)c63)c54)C=C(C)C2 [HC-8c-NH—C6-SO3H],632,"33,500 M^−1cm^−1",35
COc1c(NCc2cccc[n+]2CCCC(=O)O)c2c(=O)cc(OC)c3c4c(OC)cc(=O)c5c(O)c(NCc6cccc[n+]6CCCC(=O)O)c6c(c(c1C(C(C)=O)C(C)=C6)c23)c54 (stereo not drawn) [HB-38b-N—COOH],620,"21,500 M^−1cm^−1",18
COc1c(O)c2c(=O)cc(OC)c3c4c(OC)cc(=O)c5c(NCCS(=O)(=O)O)c(NCCS(=O)(=O)O)c6c(c(c1C(C(C)=O)C(C)=C6)c23)c54 (stereo not drawn) [HB-11a-C2-SO3H],620,"30,000 M^−1cm^−1",32
COCCOCCOCCOCCOCCOCCOC(=O)C1CCCC(Nc2c(O)c3c(=O)cc(OC)c4c5c(OC)cc(=O)c6c(NC7CCCC(C(=O)OCCOCCOCCOCCOCCOCCOC)C7)c(OC)c7c(c(c2C=C(C)C7C(C)=O)c34)c65)C1 (stereo not drawn) [HB-15b-PEG6],624,"30,000 M^−1cm^−1",34
COc1c2c3c4c(c(NCCCCS(=O)(=O)O)c(=O)c5c(O)cc(OC)c(c6c(OC)cc(NCCCCS(=O)(=O)O)c(c1=O)c63)c54)C=C(C)C2C(C)=O (stereo not drawn) [HB-11d-C4-SO3H],626,"30,500 M^−1cm^−1",32
COCCOCCOCCOCCOCCOCCOCCC(=O)OCC1(Nc2c3c4c5c(c(OC)c(=O)c6c(O)cc(OC)c(c7c(OC)cc(NC8(COC(=O)CCOCCOCCOCCOCCOCCOCCOC)CC8)c(c2=O)c74)c65)C(C(C)=O)C(C)=C3)CC1 (stereo not drawn) [HB-35c-PEG6],630,"33,500 M^−1cm^−1",38
COc1c2c3c4c(c(NC(CO)C(=O)O)c(=O)c5c(NC(CO)C(=O)O)cc(OC)c(c6c(OC)cc(O)c(c1=O)c63)c54)C=C(C)C2C(C)=O (stereo not drawn) [HB-23c],622,"22,000 M^−1cm^−1",22
COCCOCCOCCOCCOCCOCCOCCC(=O)OCC1(Nc2c(O)c3c(=O)cc(OC)c4c5c(OC)cc(=O)c6c(NC7(COC(=O)CCOCCOCCOCCOCCOCCOCCOC)CC7)c(OC)c7c(c(c2C=C(C)C7C(C)=O)c34)c65)CC1 (stereo not drawn) [HB-35b-PEG6],624,"30,500 M^−1cm^−1",32
COCCOCCOCCOCCOC(=O)C1CCC(CNc2c3c4c5c(c(OC)c(=O)c6c(O)cc(OC)c(c7c(OC)cc(NCC8CCC(C(=O)OCCOCCOCCOCCOC)CC8)c(c2=O)c74)c65)CC(C)=C3)CC1 (stereo not drawn) [HC-13c-PEG4],632,"31,500 M^−1cm^−1",36
COc1c(NCc2ccccn2)c2c(=O)cc(OC)c3c4c(OC)cc(=O)c5c(O)c(NCc6ccccn6)c6c(c(c1C(C(C)=O)C(C)=C6)c23)c54 (stereo not drawn) [HB-38b],621,"18,500 M^−1cm^−1",16
COc1c(NCS(=O)(=O)O)c2c(=O)cc(OC)c3c4c(OC)cc(=O)c5c(O)c(NCCCS(=O)(=O)O)c6c(c(c1CC(C)=C6)c23)c54 [HC-45b],618,"21,500 M^−1cm^−1",20

Compound,maximum absorption wavelength [1] [nm],molar extinction coefficient [1],singlet oxygen yield [2] [%]
COc1c2c3c4c(c(NC(CC(N)=O)C(=O)O)c(=O)c5c(NC(CC(N)=O)C(=O)O)cc(OC)c(c6c(OC)cc(O)c(c1=O)c63)c54)C=C(C)C2C(C)=O (stereo not drawn) [HB-26c],614,"21,500 M^−1cm^−1",21
COc1c2c3c4c(c(NCc5cccc[n+]5CCCC(=O)O)c(=O)c5c(O)cc(OC)c(c6c(OC)cc(NCc7cccc[n+]7CCCC(=O)O)c(c1=O)c63)c54)C=C(C)C2C(C)=O (stereo not drawn) [HB-38d-N—COOH],626,"21,000 M^−1cm^−1",20
COc1c(O)c2c(=O)cc(OC)c3c4c(OC)cc(=O)c5c(NC6CCC(O)C6)c(NC6CCC(O)C6)c6c(c(c1C(C(C)=O)C(C)=C6)c23)c54 (stereo not drawn) [HB-20a],624,"24,500 M^−1cm^−1",20
COc1c(O)c2c(=O)cc(OC)c3c4c(OC)cc(=O)c5c(NCCCC(=O)O)c(NCC(=O)O)c6c(c(c1C(C(C)=O)C(C)=C6)c23)c54 (stereo not drawn) [HB-43a],613,"26,500 M^−1cm^−1",28
COc1c2c3c4c(c(NC(CCC(=O)O)C(=O)O)c(=O)c5c(O)cc(OC)c(c6c(OC)cc(NC(CCC(=O)O)C(=O)O)c(c1=O)c63)c54)C=C(C)C2C(C)=O (stereo not drawn) [HB-28d],620,"20,500 M^−1cm^−1",18
COc1c2c3c4c(c(NC5CCCC(C(=O)O)C5)c(=O)c5c(NC6CCCC(C(=O)O)C6)cc(OC)c(c6c(OC)cc(O)c(c1=O)c63)c54)C=C(C)C2C(C)=O (stereo not drawn) [HB-15c],621,"28,000 M^−1cm^−1",26
COc1c(O)c2c(=O)cc(OC)c3c4c(OC)cc(=O)c5c(NCCCC(=O)NCC[N+](C)(C)C)c(NCCCC(=O)NCC[N+](C)(C)C)c6c(c(c1CC(C)=C6)c23)c54 [HC-8a-NH—C2-N^+],622,"30,000 M^−1cm^−1",29
COc1c(O)c2c(=O)cc(OC)c3c4c(OC)cc(=O)c5c(NCC6CCC(C(=O)O)CC6)c(NCC6CCC(C(=O)O)CC6)c6c(c(c1C(C(C)=O)C(C)=C6)c23)c54 (stereo not drawn) [HB-13a],621,"28,500 M^−1cm^−1",28
COc1c(O)c2c(=O)cc(OC)c3c4c(OC)cc(=O)c5c(NCc6ccccn6)c(NCc6ccccn6)c6c(c(c1C(C(C)=O)C(C)=C6)c23)c54 (stereo not drawn) [HB-38a],624,"19,000 M^−1cm^−1",16
COc1c(NCC(=O)O)c2c(=O)cc(OC)c3c4c(OC)cc(=O)c5c(O)c(NCC(=O)O)c6c(c(c1CC(C)=C6)c23)c54 [HC-7b],622,"28,500 M^−1cm^−1",25
COc1c(O)c2c(=O)cc(OC)c3c4c(OC)cc(=O)c5c(NC6CCCC(C(=O)O)C6)c(NC6CCCC(C(=O)O)C6)c6c(c(c1C(C(C)=O)C(C)=C6)c23)c54 (stereo not drawn) [HB-15a],625,"27,000 M^−1cm^−1",25
COCCOCCC(=O)OC1CCC(Nc2c(NC3CCC(OC(=O)CCOCCOC)C3)c3c(=O)cc(OC)c4c5c(OC)cc(=O)c6c(O)c(OC)c7c(c(c2C=C(C)C7C(C)=O)c34)c65)C1 (stereo not drawn) [HB-20a-PEG1],624,"31,000 M^−1cm^−1",30
COCCOCCOCCOCCOCCOCCOCCOCCOCCOCCOCCOCCOC(=O)CCCCCNc1c2c3c4c(c(OC)c(=O)c5c(NCCCCCC(=O)OCCOCCOCCOCCOCCOCCOCCOCCOCCOCCOCCOCCOC)cc(OC)c(c6c(OC)cc(O)c(c1=O)c63)c54)CC(C)=C2 [HC-9d-PEG12],625,"31,500 M^−1cm^−1",32
COc1c2c3c4c(c(NC(CO)C(=O)O)c(=O)c5c(O)cc(OC)c(c6c(OC)cc(NC(CO)C(=O)O)c(c1=O)c63)c54)C=C(C)C2C(C)=O (stereo not drawn) [HB-23d],621,"21,500 M^−1cm^−1",18
COc1c2c3c4c(c(NCCC5CCC(O)CC5)c(=O)c5c(O)cc(OC)c(c6c(OC)cc(NCCC7CCC(O)CC7)c(c1=O)c63)c54)C=C(C)C2C(C)=O (stereo not drawn) [HC-18d],622,"23,500 M^−1cm^−1",20
COCCOCCC(=O)OCC1(Nc2c(NC3(COC(=O)CCOCCOC)CC3)c3c(=O)cc(OC)c4c5c(OC)cc(=O)c6c(O)c(OC)c7c(c(c2C=C(C)C7C(C)=O)c34)c65)CC1 (stereo not drawn) [HB-35a-PEG1],624,"31,500 M^−1cm^−1",34
